Literature values as cited in article PMC8004929, “Whole-Body Pharmacokinetics and Physiologically Based Pharmacokinetic Model for Monomethyl Auristatin E (MMAE)” (Journal of Clinical Medicine, 2021).
Square brackets hold non-standard residues; d marks the D form. Peptide text beside a SMILES is read from it. * marks the point of attachment. Dolaproine = CO[C@@H]([C@@H]1CCCN1)[C@@H](C)C(=O)O; Dil = CC[C@H](C)[C@H](NC)[C@@H](CC(=O)O)OC; X1 = C[C@@H](N*)[C@@H](O)c1ccccc1; NMeV = CN[C@H](C(=O)O)C(C)C

Assays:
[1] = bile-duct cannulated rat; cited from earlier work
Protocol: The scaling factors used were 135 ± 10 (10^6 cells/g) for hepatocytes and 41.9 ± 24.5 (mg/g) for microsome studies. Metabolic CL and non-metabolic (mostly biliary) CL were assumed to account for 40% and 60% of total CL. This assumption is based on a human mass balance study and a bile-duct cannulated rat study, which reported that ≈60% of MMAE is excreted unchanged in the bile. As such, the CLint extrapolated from in vitro study was 109–126 mL/min (hepatocyte) and 121–462 mL/min (microsome). The CLint approximated from our in vivo data was 146 mL/min using the convent ...

P-glycoprotein = conditions: cited from earlier work
From the text: Concentration data were not obtained for gastrointestinal tracts and thymus, and thus, an assumption was made when calculating KP values for these tissues based on the result of a quantitative whole-body autoradiography study of trastuzumab-vc-MMAE in rats. The study observed persistent MMAE radioactivity in tissues with rapidly dividing cells such as GI epithelia, bone marrow, spleen, and thymus. Accordingly, apparent KP in GI tracts and thymus were assumed to be the same as in spleen, and they were adjusted for the fractional cellular volume of each tissue. KP values were >1 in all tis ... || The PBPK model of MMAE presented here can further be used to assess drug–drug interactions of MMAE containing ADCs. In vivo and in vitro studies indicate that MMAE is a substrate of CYP3A and P-glycoprotein [34]. As such, the polymorphism of CYP3A and P-glycoprotein may affect the PK of MMAE, and consequently the efficacy and toxicity of MMAE-conjugated ADCs. As such, the MMAE PBPK model can serve as a tool to explore drug interactions of ADCs.

CC[C@H](C)[C@@H]([C@@H](CC(=O)N1CCC[C@H]1[C@H](OC)[C@@H](C)C(=O)N[C@H](C)[C@@H](O)c1ccccc1)OC)N(C)C(=O)[C@@H](NC(=O)[C@@H](NC)C(C)C)C(C)C [MMAE, Monomethyl auristatin E] (H-[NMeV]V[Dil][Dolaproine]-X1)
MMAE excreted unchanged in the bile [1]: ≈ 60% | substrate of P-glycoprotein (P-glycoprotein): substrate
